In patent publication EP2229935A1, “Peptide derivatives or pharmaceutically acceptable salts thereof, method for producing the same, use of said derivatives and pharmaceutical composition” (Nebolsin, Vladimir Evgenievich, priority 1997, dated 1999):
Marks after values point to notes of the source that are not given here.

Legend:
[1] = tested on: peripheral blood neutrophils; assay: Activity of peripheral blood neutrophils in mice with LLC; assay type: in vivo, C57BL/6 female mice; conditions: Cyclophosphane 5 times 20.0 mg/kg (in 48 hours) for 10 days
Procedure: Experiments were carried out on C57BL/6 female mice with intramuscularly transplanted LLC carcinoma. Activity of neutrophils was measured by days 11 and 14.
• control - animals with LLC tumor, 10 animals; • animals with LLC tumor + compound III at a dose 500.0 µg/kg for 10 days. 8 animals; • animals with LLC tumor + Cyclophosphane 5 times at a dose 20.0 mg/kg (in 48 hours) for 10 days, 8 animals; • compound III and Cyclophosphane according to the above dosage regimen, 8 animals.
Experiment duration was 14 days.

[2] = tested on: Lewis pulmonary carcinoma (LLC); assay: LLC metastasizing with surgical resection of the primary tumor node, alone and with Cyclophosphane; assay type: in vivo, C57BL/6 female mice; conditions: 96 hour interval, 100 µg/kg
Procedure: An important property of the compounds is their ability to manifest pharmacological activity on the model with resection of the primary tumor node and not to lower therapeutic efficacy of respective antitumor drugs. […] Surgical resection of the primary tumor node was performed by day 13 following tumor transplantation. The test anitumor compounds were administered according to two dosage regimens:
Dosage regimen 1 - animals were administered compound III from day 1 till day 13 of experiment at a dose 500 µg/kg (group 1); Cyclophosphane was administered intraperitoneally two times before operation with 96 hour interval at a dose 100 µg/kg (group 2); combined administration of compound III and Cyclophosphane was similar to administration of substances in groups 1 and 2 (group 3). Number of metastases was calculated by day 29 of experiment;
Dosage regimen 2 - animals were administered compound III from day 14 of experiment (commencement of administration 24 hours post operation) till day 28 (group 4); Cyclophosphane was administered twice post operation with 96 hour interval at a dose 100 µg/kg (group 5); combined administration of compound III and Cyclophosphane similar to administration of substances in groups 4 and 5 (group 6). Antimetastatic efficacy of the drugs was considered by day 29 of experiment.

peritoneal mast cells = assay: Histamine secretion by peritoneal mast cells of sensitized rats; assay type: in vivo, Wistar male rats; conditions: intraperitoneal 3 days; for Stimulated secretion, percent: OVA-stimulated
Procedure: Effects on histamine release. […] 2 ml of cellular suspension containing 0.1-0.2 x 10^6 MC/ml were incubated in the presence of […] OVA. Histamine secretion was expressed in percent to its total level. Histamine amount in samples was determined using spectrofluorimetric method [Short P.A., Burkhalter A., Cohn V.N. A method for fluorimetric assay of histamine in tissues. J. Pharmacol. Exper.
Animals of the control group were intraperitonelly injected normal saline (group 1). Each group included 10 animals.

mongrel male mice [3] = assay: Passive cutaneous anaphylaxis reaction; assay type: in vivo; conditions: PCA, oral 3 days, 10 µg/kg
Procedure: Experiments were carried out on mongrel male mice with initial body mass 22-24 g. Each group included 10 animals. Sensibilization of animals was accomplished by intradermal injection of 20-30 µl of the serum of mice obtained from preliminaryly immunized animals comprising reagent antibodies against chicken ovalbumin (OVA). […] In 48 hours after sensibilzation an anaphylaxis-provoking OVA dose (1 mg and 0,2 ml Evans blue in 0.2 ml normal saline) were intravenously injected to mice. Passive cutaneous anaphylaxis reaction intensity (PCA) was determined in 30 minutes by the size (area) of a blue spot on the internal skin surface in the site of reagent anibodies' administration. Spot size was measured in two mutually perpendicular directions and the result was expressed in mm^2.

mongrel guinea-pigs = assay: Food anaphylaxis (active anaphylactic shock) in OVA-sensitized guinea pigs; conditions: oral 3 days before provoking anaphylaxis, 50 µg/kg
hydroxyl radical = assay: Hydroxyl radical formation in the Fenton reagent (chemiluminescence); assay type: biochemical
Procedure: Active oxygen forms (AOF) of different nature were generated in the following systems: • A. Hydroxyl radical - in the mixture of FeSO4 with H2O2 (the Fenton reagent) [Halliwell B. Superoxide-dependent formation of hydroxyl radicals in the presence of iron salts. […] Incubation medium comprised 5 mM KH2PO4 (pH 7.4); 5 mM FeSO4; 2 mM luminol. H2O2 at final concentration 5 mM was introduced into a cuvette through a dispencer following background luminescence recording of the reagents' mixture. 5 to 10 ml of the test compounds dissolved in water were at needed concentration introduced into a cuvette.
CL flash recording duration after mixing ingredients, depended on a particular process kinetics. For each system, CL light sum (mV) was determined in the control samples without preparations (I-) and in samples comprising respective concentrations of preparations (I+). To estimate CL inhibition (activation) degree, the I+/I- ratio (in relative units) was found in the studied systems.
When H2O2 was introduced into phosphate buffer comprising iron sulfate, CL flash occured which was caused by formation of predominantly hydroxyl radical in the reaction mixture.

mongrel male mice [4] = assay: Average lifetime of mice in a closed volume (hypoxia); assay type: in vivo; conditions: without preliminary hypoxia, oral 2 hours before hypoxia, 300 mg/kg
Procedure: (§1) The tests of determining average lifetime of animals in a closed volume and on the model of acute hypobaric hypoxia at the minimum atmospheric rarefaction (170-185 mm Hg) were used to study antihypoxic activity of the compunds of general formula (I).
Mice were one by one placed into sealed glass jars and their lifetime was recorded.
The experiment was carried out on 90 mongrel male mice having initial body mass 20 ± 0,5 g housed in cages by 10 animals and given a standard vivarium ration. Average lifetime of mice in closed vessels having volume 250 ml was preliminarily determined and it was 22 to 25 minutes. All the groups included 10 animals each.
Experimental protocol: • a) - preliminary hypoxia for 12 minutes; • b) - first administration of a compound immediately following preliminary hypoxia; • c) - second administration of a compound in 24 hours after the first one, then daily for three days; • d) - recording lifetime of animals under hypoxic conditions in a sealed space 2 hours after the last administration of a compound.
The test compounds were dissolved in distilled water and orally administered to animals for 5 days.
Experimental groups: • Group 1 -(control) - without preliminary hipoxia with oral administration of distilled water for 5 days; • Groups 2 and 3 - administration of the compound XLIV using two doses 50 and 500 µg respectively; • Group 4 - oral administration of sodium oxybutyrate at a dose […] 2 hours before hypoxia; • Group 5 -(control)- with preliminary hypoxia for 12 minutes with subsequent administration of distilled water for 5 days; • Groups 6 and 7 - administration of the compound XLIV using two doses 50 and 500 µg respectively; • Groups 8 and 9 - administration of the compound III using two doses 50 and 500 µg respectively.

mongrel mice = assay: Acute hypobaric hypoxia model (AHBH); assay type: in vivo; conditions: single administration, 300,000 µg/kg
Procedure: as §1
Simulation of AHBH was done in a flow-through chamber at temperature 22°C. Experiments were carried out on mongrel mice with initial body mass 20 g at the minimum rarefaction 170-185 mm Hg, that corresponds to the altitude of 10500-11000 m. Lift rate was 35 m/second. Each group included 15 animals. Compounds were administered orally, lift on to altitude was performed 2 hours after the last administration.
Groups of animals: • Group 1 - intact control -administration of normal saline four times. • Groups 2 and 3 - administration of the compound III at doses 50 and 500 µg/kg for 4 days. • Group 4 - single administration of sodium oxybutyrate at a dose […].

[5] = regimen 1: intraperitoneally two times before operation
[6] = regimen 2: twice post operation

How did the “Percent of active neutrophils” value ([1]; Background) turn out when O=P1(N(CCCl)CCCl)NCCCO1 (stereo not shown) [Cyclophosphane, reference compound] was run?
The value was 21.5 ± 3.4%.

What about the “Percent of active neutrophils” value ([1]; day 11) of the same molecule?
Its value is 7.6 ± 2.0%.

And the “Percent of active neutrophils” value ([1]; day 14)?
The value was 20.6 ± 6.0%.

What about the “Mean number of metastases” value [2, 5] of the same molecule?
The value was 19.5 ± 5.1.

What about the Metastasizing inhibition percent [2, 5] of the same molecule?
Its Metastasizing inhibition percent is 43.9%.

What about the “Metastasizing rate (%)” value [2, 5] of the same molecule?
The value was 100%.

And the “Mean number of metastases” value [2, 6]?
The value was 18.0 ± 4.3.

What about the Metastasizing inhibition percent [2, 6] of the same molecule?
The Metastasizing inhibition percent was 51.5%.

And the “Metastasizing rate (%)” value [2, 6]?
Its value is 100%.

What does the source list for CN(C)CCN(Cc1ccc(Cl)cc1)c1ccccn1 [Suprastine, reference compound]?
Stimulated secretion, percent (peritoneal mast cells; 1000 µg/kg): 7.02%; Histamine level, µg/10^6 MC (peritoneal mast cells; 1000 µg/kg): 16.24*^1 µg/10^6 MC; Spontaneous secretion, percent (peritoneal mast cells; 1000 µg/kg): 5.62%; Percent of the reaction inhibition (mongrel male mice [3]): 7.6%; Reaction intensity, mm^2 (mongrel male mice [3]): 82.1 ± 18.1 mm^2

For N[C@H](CCC(=O)NCCc1c[nH]cn1)C(=O)O [compound XLV, γ -L-, D-glutamylhistamine], which Anaphylactic index (mongrel guinea-pigs) is on record?
The Anaphylactic index was 0.90*.

And the Lethality in percent (mongrel guinea-pigs)?
Its Lethality in percent is 6.7** percent.

And the Seizures in percent (mongrel guinea-pigs)?
Its Seizures in percent is 15.5* percent.

And the “Stimulated secretion, percent” value (peritoneal mast cells; 50 µg/kg)?
The value was 2.32*^1,3%.

What about the “Histamine level, µg/10^6 MC” value (peritoneal mast cells; 50 µg/kg) of the same molecule?
The value was 16.90*^1 µg/10^6 MC.

What about the “Spontaneous secretion, percent” value (peritoneal mast cells; 50 µg/kg) of the same molecule?
Its value is 9.63*^1,3%.

And the “relative effect: I+/I-” value (hydroxyl radical; 1 µM)?
The value was 1.0.

What about the “Chemiluminiscence intensity (mV) + σn-1” value (hydroxyl radical; 1 µM, control of the series as in the table) of the same molecule?
The value was 7666 ± 101 mV.

And the “relative effect: I+/I-” value (hydroxyl radical; 0.01 mM)?
The value was 0.95.

And the “Chemiluminiscence intensity (mV) + σn-1” value (hydroxyl radical; 0.01 mM, control of the series as in the table)?
The value was 7443 ± 267 mV.

And the “relative effect: I+/I-” value (hydroxyl radical; 0.1 mM)?
Its value is 0.74.

And the “Chemiluminiscence intensity (mV) + σn-1” value (hydroxyl radical; 0.1 mM, control of the series as in the table)?
Its value is 5800 ± 247 mV.

And the “relative effect: I+/I-” value (hydroxyl radical; 1 mM)?
The value was 0.16.

And the “Chemiluminiscence intensity (mV) + σn-1” value (hydroxyl radical; 1 mM, control of the series 7839 ± 171, 1120 ± 163, 4974 ± 283 or 1332 ± 172)?
Its value is 2195 ± 18 mV.

Which “Lifetime (seconds)” value (mongrel male mice [4]) does the source give for O=C(O)CCCO [sodium oxybutyrate, reference compound] here?
The value was 2103,9±100,5**^1 seconds.

And the Effect in percent (mongrel mice; lifetime relative to control)?
Its Effect in percent is 119 ± 4,4%.

What about the “Lifetime under hypoxic conditions (minutes)” value (mongrel mice; mice, 170-185 mm Hg) of the same molecule?
Its value is 364,3 ± 13,5 minutes.
